Assay results published in patent publication US11028087B2, “2,6-disubstituted-9-cyclopentyl-9H-purines, use thereof as medicaments, and pharmaceutical compositions” (UNIVERZITA PALACKEHO V OLOMOUCI, priority 2017, dated 2021).

Tests used:
CDK2/Cyclin E = target: T1, CDK2/Cyclin E (Homo sapiens, UniProt P24941); assay: Kinase inhibition assay with [γ-33P]ATP; type: biochemical; conditions: histone H1, 15 μM ATP; read-out: IC50 values (μM) CDK2
T1 construct: made in house; host or cells: Sf9 insect cells, baculoviral infection
Summary of the method: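 Human CDK2/Cyclin E, expressed in baculovirus-infected Sf9 insect cells and purified on a NiNTA column, was assayed with 1 mg/mL histone H1 substrate, 15 μM ATP plus 0.05 μCi [γ-33P]ATP and test compound in 10 μL of buffer (60 mM HEPES-NaOH pH 7.5, 3 mM MgCl2, 3 mM MnCl2, 3 μM Na-orthovanadate, 1.2 mM DTT, PEG20,000). Reactions were quenched with 5 μL 3% H3PO4, spotted onto P-81 phosphocellulose, washed and dried.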

FLT3 D835 = target: T2, FLT3 D835 (Homo sapiens, UniProt P36888); assay: Kinase inhibition assay with [γ-33P]ATP; type: biochemical; conditions: AGLT substrate, 1 μM ATP
T2 sequence (P36888 1-993 D835Y): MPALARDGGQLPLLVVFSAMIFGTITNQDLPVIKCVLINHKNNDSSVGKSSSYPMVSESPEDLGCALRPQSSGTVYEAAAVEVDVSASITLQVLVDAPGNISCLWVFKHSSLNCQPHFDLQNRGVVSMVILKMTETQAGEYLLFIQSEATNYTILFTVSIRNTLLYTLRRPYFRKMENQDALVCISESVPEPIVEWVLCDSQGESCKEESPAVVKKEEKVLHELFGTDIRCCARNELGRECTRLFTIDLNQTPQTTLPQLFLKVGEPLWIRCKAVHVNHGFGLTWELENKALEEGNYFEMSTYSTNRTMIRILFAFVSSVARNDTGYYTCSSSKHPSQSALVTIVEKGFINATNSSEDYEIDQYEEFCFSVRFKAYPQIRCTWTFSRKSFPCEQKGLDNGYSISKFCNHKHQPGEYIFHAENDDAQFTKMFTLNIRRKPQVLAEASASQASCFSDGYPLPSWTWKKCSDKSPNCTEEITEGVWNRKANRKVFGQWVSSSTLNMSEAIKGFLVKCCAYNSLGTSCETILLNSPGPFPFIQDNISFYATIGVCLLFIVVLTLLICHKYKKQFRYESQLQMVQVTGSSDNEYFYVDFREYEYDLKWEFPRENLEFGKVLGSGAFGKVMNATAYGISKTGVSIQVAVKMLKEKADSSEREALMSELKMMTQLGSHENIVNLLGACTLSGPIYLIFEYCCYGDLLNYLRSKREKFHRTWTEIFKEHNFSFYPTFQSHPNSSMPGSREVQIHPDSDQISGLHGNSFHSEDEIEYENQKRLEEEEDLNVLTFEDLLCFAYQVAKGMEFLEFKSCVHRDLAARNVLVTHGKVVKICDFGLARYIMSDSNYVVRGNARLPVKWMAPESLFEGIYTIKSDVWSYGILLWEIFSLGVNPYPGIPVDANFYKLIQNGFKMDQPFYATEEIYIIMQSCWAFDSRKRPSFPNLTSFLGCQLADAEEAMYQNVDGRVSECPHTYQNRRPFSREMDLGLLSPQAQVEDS

[1] = system: MV4-11 (acute myeloid leukemia, FLT3-ITD positive); assay: Calcein AM cytotoxicity assay; type: cell-based; conditions: Homo sapiens, 72 h; MV4-11; Calcein AM, three days after drug addition; read-out: EC50 values (μM) MV4-11
Summary of the method: (§1)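 Cells were seeded in 96-well plates and treated next day with compounds at various concentrations in triplicate for three days at 37 °C, 5% CO2. Viability read as calcein fluorescence after 1 h with Calcein AM at 1 μg/ml final.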

K562 = assay: Calcein AM cytotoxicity assay; type: cell-based; conditions: Homo sapiens, 72 h; K562; Calcein AM, three days; read-out: EC50 values (μM) K562
Summary of the method: as §1

[2] = system: THP-1 (acute myeloid leukemia, wt FLT3); assay: Calcein AM cytotoxicity assay; type: cell-based; conditions: Homo sapiens, 72 h; THP-1; Calcein AM, three days; read-out: EC50 values (μM) THP-1
Summary of the method: as §1

MCF-7 = assay: Calcein AM cytotoxicity assay; type: cell-based; conditions: Homo sapiens, MCF7, 72 h; MCF-7; Calcein AM, three days; read-out: EC50 values (μM) MCF-7
Summary of the method: as §1

[3] = system: U937 (monocytic leukemia, wt FLT3); assay: Calcein AM cytotoxicity assay; type: cell-based; conditions: Homo sapiens, U-937, 72 h; U937; Calcein AM, three days; read-out: EC50 values (μM) U937
Summary of the method: as §1

[4] = system: EOL-1 (eosinophilic leukaemia, carrying the fusion FIP1L1-PDGFRA); assay: Calcein AM cytotoxicity assay; type: cell-based; conditions: Homo sapiens, EOL1, 72 h; EOL-1; Calcein AM, three days; read-out: EC50 values (μM) EOL-1
Summary of the method: as §1

[5] = system: MOLM-13 (acute myeloid leukemia, FLT3-ITD positive); assay: Calcein AM cytotoxicity assay; type: cell-based; conditions: Homo sapiens, 72 h; MOLM-13; Calcein AM, three days; read-out: EC50 values (μM) MOLM-13
Summary of the method: as §1

Compound | IC50 (CDK2/Cyclin E) [µM] | IC50 (FLT3 D835) [µM] | EC50 [1] [µM] | EC50 (K562) [µM] | EC50 [2] [µM] | EC50 (MCF-7) [µM] | EC50 [3] [µM] | EC50 [4] [µM] | EC50 [5] [µM]
NC1CCC(Nc2nc(Nc3ccc(N4CCOCC4)cc3)c3ncn(C4CCCC4)c3n2)CC1 (stereo not drawn) [Compound 1] | 0.017 | 0.007 | 0.001 | 1.19 | 1.01 | 0.32 | 2.13 | 0.008 | 0.004
NC1CCC(Nc2nc(Nc3ccc(CN4CCNCC4)cc3)c3ncn(C4CCCC4)c3n2)CC1 (stereo not drawn) [Compound 2] | 0.008 | 0.003 | 0.01 | 1.57 | 2.28 | 0.52 | 1.8 | 0.023 | 0.015
CN1CCN(C(=O)c2ccc(Nc3nc(NC4CCC(N)CC4)nc4c3ncn4C3CCCC3)cc2)CC1 (stereo not drawn) [Compound 3] | 0.004 | 0.003 | 0.018 | 1.23 | 3.02 | 0.273 | 3.66 | 0.015 | 0.02
CN1CC2(C1)CN(c1ccc(Nc3nc(NC4CCC(O)CC4)nc4c3ncn4C3CCCC3)cc1)C2 (stereo not drawn) [Compound 7] | 0.006 | 0.011 | – | – | – | – | – | – | –
NCCNc1nc(Nc2ccc(CN3CCNCC3)cc2)c2ncn(C3CCCC3)c2n1 [Compound 14] | 0.004 | 0.01 | 0.083 | 1.56 | 1.86 | 1.52 | 1.45 | 0.054 | 0.025
CN1CCN(C(=O)c2ccc(Nc3nc(NCCCCN)nc4c3ncn4C3CCCC3)cc2)CC1 [Compound 27] | 0.002 | 0.011 | 0.024 | 0.57 | 0.624 | 0.265 | 0.794 | 0.053 | 0.019
NCCCCNc1nc(Nc2ccc(N3CC4(COC4)C3)nc2)c2ncn(C3CCCC3)c2n1 [Compound 28] | 0.028 | 0.002 | 0.001 | 1.05 | 0.514 | 0.925 | 0.605 | 0.013 | 0.004
CN(C)CCNc1nc(Nc2ccc(CN3CCOCC3)nc2)c2ncn(C3CCCC3)c2n1 [Compound 172] | 0.016 | 0.005 | 0.003 | 1.16 | 1.52 | 0.43 | 1.48 | 0.014 | 0.017
CN(C)CCCNc1nc(Nc2ccc(C(=O)N3CCOCC3)nc2)c2ncn(C3CCCC3)c2n1 [Compound 179] | 0.04 | 0.023 | 0.013 | – | > 4 | 2.21 | – | 0.225 | 0.078
NC1CCC(Nc2nc(Nc3ccc(N4CCCC4)cc3)c3ncn(C4CCCC4)c3n2)CC1 (stereo not drawn) [Compound 263] | 0.031 | 0.011 | 0.018 | 1.27 | 3.11 | 1.33 | 3.17 | 0.03 | 0.024
NC1CCC(Nc2nc(Nc3ccc(CN4CCOCC4)cc3)c3ncn(C4CCCC4)c3n2)CC1 (stereo not drawn) [Compound 264] | 0.007 | 0.009 | – | – | – | – | – | – | –
NCCCCNc1nc(Nc2ccc(N3CCOCC3)cc2)c2ncn(C3CCCC3)c2n1 [Compound 265] | 0.642 | 0.007 | 0.017 | 3.74 | > 4 | 3.25 | > 4 | 0.039 | 0.016
CCN1CCN(c2ccc(Nc3nc(NCCCCN)nc4c3ncn4C3CCCC3)cc2)CC1 [Compound 266] | 0.586 | 0.003 | 0.018 | 1.43 | 2.99 | 2.15 | 3.77 | 0.074 | 0.014
NCCCCNc1nc(Nc2ccc(CN3CCOCC3)cc2)c2ncn(C3CCCC3)c2n1 [Compound 270] | 0.625 | 0.005 | 0.029 | 1.81 | 1.24 | 2.1 | > 4 | – | 0.014
NC1CCC(Nc2nc(Nc3ccc(N4CC5(COC5)C4)cc3)c3ncn(C4CCCC4)c3n2)CC1 (stereo not drawn) [Compound 272] | 0.025 | – | 0.003 | 1.18 | 0.693 | 1.05 | 0.638 | 0.022 | 0.004
